In US10752640B2, “Compounds active towards bromodomains” (NUEVOLUTION A/S, priority 2014, dated 2020):

Biological target: BRD4 protein (Homo sapiens, UniProt O60885)
Experiment: FRET assay, half maximal inhibitory concentration (IC50)
Format: binding
Conditions: BRD4 protein 50 nM, Biotin-H4KAc4 peptide 12.5 nM; A Further List of Classification
Method: The compounds were biologically evaluated by determining the half maximal inhibitory concentration (IC50) by FRET assay. The IC50 is a measure of the effectiveness of a substance in inhibiting a specific biological or biochemical function.
For IC50 determinations, dose-response curves were generated, using a top concentration of 50 μM compound in 12.5% DMSO, followed by 10-fold dilutions in 12.5% DMSO. The composition of the reaction buffer was 50 mM HEPES, pH 7.5; 100 mM NaCl, 0.05% CHAPS.
The reaction was run in a final volume of 25 μl. The BRD4 protein (16.5 μl) was added to wells of 384w white Optiplates (Perkin Elmer) (50 nM final concentration) and 1 μl of compound dilution of DMSO control. Incubation time was 30 minutes at room temperature. In the next step, 2.5 μl Biotin-H4KAc4 peptide (Millipore 13-379) was added to the wells (final concentration was 12.5 nM), and the plates were incubated for 30 minutes at room temperature. Detection was performed by addition of 5 μl of a mix of mAb GST-XL665 (Cisbio 61GSTXLB) (10 nM final concentration) and Streptavidin Cryptate (Cisbio 610SAKLB) (2.4 nM final conc.) in reaction buffer with 0.4M KF and 0.05% BSA). The plates were incubated for one hour prior to reading on an Envision reader (Perkin Elmer)
Data was analyzed using GraphPad Prism, and IC50 data was obtained using non-linear regression curve fit using log(inhibitor) vs response (variable slope). All compounds were considered active although classified (according to the half maximal inhibitory concentration (IC50) by FRET assay) as follows: […]

IC50 [nM]	SMILES
500 to 1000	Cc1cc(O)nc2ccc(NC(=O)c3cc(S(=O)(=O)N(C)C)ccc3N3CCC(OCC(N)=O)C3)cc12 (centres unmarked) [S50, 2-[3-(2-amino-2-oxo-ethoxy)pyrrolidin-1-yl]-5-(dimethylsulfamoyl)-N-(2-hydroxy-4-methyl-6-quinolyl)benzamide]
1000 to 10000	CN1C(=O)CCc2cc(NC(=O)c3cccnc3N3CCOCC3)ccc21 [S4, N-(1-methyl-2-oxo-3,4-dihydroquinolin-6-yl)-2-morpholino-pyridine-3-carboxamide]
> 10000	CN(C)S(=O)(=O)c1ccc(N2CCOCC2)c(C(=O)Nc2ccc3[nH]c(=O)[nH]c(=O)c3c2)c1 [S37, 5-(dimethylsulfamoyl)-N-(2,4-dioxo-1H-quinazolin-6-yl)-2-morpholino-benzamide]
1000 to 10000	Cc1ccc(C(=O)Nc2ccc3c(c2)CCC(=O)N3C)cc1S(=O)(=O)NC1CCCC1 [S3, 3-(cyclopentylsulfamoyl)-4-methyl-N-(1-methyl-2-oxo-3,4-dihydroquinolin-6-yl)benzamide]
1000 to 10000	CN1C(=O)CCc2cc(NC(=O)c3ccccc3N3CCOCC3)ccc21 [S1, N-(1-methyl-2-oxo-3,4-dihydroquinolin-6-yl)-2-morpholino-benzamide]
< 200	Cc1cc(O)nc2ccc(NC(=O)c3cc(S(=O)(=O)N(C)C)ccc3N3CCC(CN(C)C)C3)cc12 (centres unmarked) [S47, 2-[3-(dimethylaminomethyl)pyrrolidin-1-yl]-5-(dimethylsulfamoyl)-N-(2-hydroxy-4-methyl-6-quinolyl)benzamide]
500 to 1000	CCN(CC)S(=O)(=O)c1ccc(N2CCCCC2)c(C(=O)Nc2ccc3nc(O)cc(C)c3c2)c1 [S72, 5-(diethylsulfamoyl)-N-(2-hydroxy-4-methyl-6-quinolyl)-2-(1-piperidyl)benzamide]
500 to 1000	Cc1cc(O)nc2ccc(NC(=O)c3cc(S(=O)(=O)N(C)C)ccc3N3C4CCC3CC(C)(O)C4)cc12 (centres unmarked) [S65, 5-(dimethylsulfamoyl)-2-(3-hydroxy-3-methyl-8-azabicyclo[3.2.1]octan-8-yl)-N-(2-hydroxy-4-methyl-6-quinolyl)benzamide]
500 to 1000	Cc1cc(O)nc2ccc(NC(=O)c3cc(S(=O)(=O)N(C)C)ccc3N3CCC(N(C)C)C3)cc12 (centres unmarked) [S45, 2-[3-(dimethylamino)pyrrolidin-1-yl]-5-(dimethylsulfamoyl)-N-(2-hydroxy-4-methyl-6-quinolyl)benzamide]
< 200	Cc1cc(O)nc2ccc(NC(=O)c3cc(S(=O)(=O)N(C)C)ccc3N3CCC(NC(N)=O)C3)cc12 (centres unmarked) [S48, 5-(dimethylsulfamoyl)-N-(2-hydroxy-4-methyl-6-quinolyl)-2-(3-ureidopyrrolidin-1-yl)benzamide]
500 to 1000	Cc1cc(O)nc2ccc(NC(=O)c3cccc(CN4CCNCC4)c3)cc12 [S21, N-(2-hydroxy-4-methyl-6-quinolyl)-3-(piperazin-1-ylmethyl)benzamide]
< 200	Cc1cc(O)nc2ccc(NC(=O)c3cc(S(N)(=O)=O)ccc3N3CCOCC3)cc12 [S12, N-(2-hydroxy-4-methyl-6-quinolyl)-2-morpholino-5-sulfamoyl-benzamide]
< 200	Cc1cc(O)nc2ccc(NC(=O)c3cc(S(=O)(=O)N4CCCCC4)ccc3N3CCOCC3)cc12 [S19, N-(2-hydroxy-4-methyl-6-quinolyl)-2-morpholino-5-(1-piperidylsulfonyl)benzamide]
< 200	Cc1cc(O)nc2ccc(NC(=O)c3cc(CN4CCOCC4)cnc3N3CCC(C)C3)cc12 (centres unmarked) [S93, N-(2-hydroxy-4-methyl-6-quinolyl)-2-(3-methylpyrrolidin-1-yl)-5-(morpholinomethyl)pyridine-3-carboxamide]
500 to 1000	Cc1cc(O)nc2ccc(NC(=O)c3cc(S(=O)(=O)N(C)C)ccc3N3CCC4C3CCCN4C)cc12 (centres unmarked) [S61, 5-(dimethylsulfamoyl)-N-(2-hydroxy-4-methyl-6-quinolyl)-2-(4-methyl-3,3a,5,6,7,7a-hexahydro-2H-pyrrolo[3,2-b]pyridin-1-yl)benzamide]

Same assay, conditions: BRD4 protein 50 nM, Biotin-H4KAc4 peptide 12.5 nM; List of Classification

IC50 [nM]	SMILES
< 200	Cc1cc2[nH]c(=O)cc(C)c2cc1NC(=O)c1cc(C#N)ncc1N1CCOCC1 [Compound-164, 2-cyano-N-(4,7-dimethyl-2-oxo-1H-quinolin-6-yl)-5-morpholino-pyridine-4-carboxamide]
< 200	COc1cc2nc(O)cc(C)c2cc1NC(=O)c1cc(-c2nnc(C)o2)ccc1N1CCOCC1 [Compound-201, N-(2-hydroxy-7-methoxy-4-methylquinolin-6-yl)-5-(5-methyl-1,3,4-oxadiazol-2-yl)-2-morpholinobenzamide]
< 200	CC(=O)c1cc(C(=O)Nc2ccc3nc(O)cc(C)c3c2)c(N2CCC(F)C2)cn1 (centres unmarked) [Compound-209]
< 200	Cc1cc(O)nc2ccc(NC(=O)c3cc(N4CCN(C)CC4)cnc3N3CCOCC3)cc12 [Compound-185, N-(2-hydroxy-4-methylquinolin-6-yl)-5-(4-methylpiperazin-1-yl)-2-morpholinonicotinamide]
500 to 1000	Cc1cc(O)nc2ccc(NC(=O)c3cc(Br)cnc3N3CCC(F)C3)cc12 (centres unmarked) [Compound-184, 5-bromo-2-(3-fluoropyrrolidin-1-yl)-N-(2-hydroxy-4-methylquinolin-6-yl) nicotinamide]
< 200	CC(C)c1cc(O)nc2ccc(NC(=O)c3cc(S(=O)(=O)N(C)C)ccc3N3CCCC3)cc12 [Compound-165, 5-(dimethylsulfamoyl)-N-(2-hydroxy-4-isopropyl-6-quinolyl)-2-pyrrolidin-1-yl-benzamide]

The next lines start with the compound.

SMILES	IC50 [nM]
Cc1cc(O)nc2ccc(NC(=O)c3nc(C#N)ccc3N3CCCC3)cc12 [Compound-35, 6-Cyano-N-(2-hydroxy-4-methylquinolin-6-yl)-3-(pyrrolidin-1-yl)picolinamide]	500 to 1000
COC1CCN(c2ccc(S(=O)(=O)N3CCOCC3)cc2C(=O)Nc2ccc3nc(O)cc(C)c3c2)C1 (centres unmarked) [Compound-111, N-(2-hydroxy-4-methyl-6-quinolyl)-2-(3-methoxypyrrolidin-1-yl)-5-morpholino-sulfonyl-benzamide]	< 200
Cc1cc(O)nc2ccc(NC(=O)c3cc(N)cnc3N3CCCC3)cc12 [Compound-24, 5-amino-N-(2-hydroxy-4-methyl-6-quinolyl)-2-pyrrolidin-1-yl-pyridine-3-carboxamide]	< 200
Cc1cc(O)nc2ccc(NC(=O)c3cccnc3N3CCOCC3CO)cc12 (centres unmarked) [Compound-145, 2-[3-(hydroxymethyl)morpholin-4-yl]-N-(2-hydroxy-4-methyl-6-quinolyl)pyridine-3-carboxamide]	< 200
Cc1cc(O)nc2ccc(NC(=O)c3nc(C(C)O)ccc3N3CCCC3)cc12 (centres unmarked) [Compound-39]	500 to 1000
Cc1cc(O)nc2ccc(NC(=O)c3cc(S(=O)(=O)N4CCOCC4)ccc3N3CCOCC3)cc12 [Compound-68, N-(2-hydroxy-4-methyl-6-quinolyl)-2-morpholino-5-morpholinosulfonyl-benzamide]	< 200
CN1C(=O)CCc2cc(NC(=O)c3cccnc3N3CCOCC3)ccc21 [Compound-131, N-(1-methyl-2-oxo-3,4-dihydroquinolin-6-yl)-2-morpholino-pyridine-3-carboxamide]	1000 to 10000
COc1cc2nc(O)cc(C)c2cc1NC(=O)c1cc(-c2ccoc2)ccc1N1CCOCC1 [Compound-160, 5-(3-furyl)-N-(2-hydroxy-7-methoxy-4-methyl-6-quinolyl)-2-morpholino-benzamide]	500 to 1000
Cc1cc(O)nc2ccc(NC(=O)c3cc(CC#N)ccc3N3CCCC3)cc12 [Compound-112, 5-(cyanomethyl)-N-(4-methyl-2-oxo-1,2-dihydroquinolin-6-yl)-2-(pyrrolidin-1-yl)benzamide]	< 200
Cc1cc(O)nc2ccc(NC(=O)c3cc(CN4CCOCC4)ccc3N3CCCC3CO)cc12 (centres unmarked) [Compound-30, N-(2-hydroxy-4-methylquinolin-6-yl)-2-(2-(hydroxymethyl)pyrrolidin-1-yl)-5-(morpholinomethyl) benzamide]	< 200
Cc1cc2nc(O)cc(C)c2cc1NC(=O)c1cc(-c2c(C)noc2C)ccc1N1CCOCC1 [Compound-155, 5-(3,5-dimethylisoxazol-4-yl)-N-(2-hydroxy-4,7-dimethyl-6-quinolyl)-2-morpholino-benzamide]	< 200
Cc1cc(O)nc2ccc(NC(=O)c3cc(S(=O)(=O)N(C)C)ccc3N3CC(N(C)C)C3)cc12 [Compound-20, 2-[3-(dimethylamino)azetidin-1-yl]-5-(dimethylsulfamoyl)-N-(2-hydroxy-4-methyl-6-quinolyl)benzamide]	200 to 500
Cc1cc(O)nc2ccc(NC(=O)c3cc(N)ccc3-n3cccn3)cc12 [Compound-105, 5-amino-N-(2-hydroxy-4-methyl-6-quinolyl)-2-pyrazol-1-yl-benzamide]	500 to 1000
O=C(Nc1ccc2nc(O)cc(C(F)(F)F)c2c1)c1cc(CN2CCOCC2)ccc1N1CCCC1 [Compound-28, N-(2-hydroxy-4-(trifluoromethyl)quinolin-6-yl)-5-(morpholinomethyl)-2-(pyrrolidin-1-yl) benzamide]	500 to 1000
